Where two headings read alike, the source gives them in different places.
Tests used:
[1] = system: Chlorella sp. ATCC 7516; assay: Algal efficacy test of dry paint films (modified ASTM 5589, 6-well plates); type: cell-based; conditions: for inhibition at 2000 ppm: 504 h, read-out: % inhibition of visible algal growth
Method: (§1) ROCIMA™ 250 (40% IPBC) was post added to a white, acrylic/silicone based outdoor paint free of biocides to give a total active ingredient concentration of 10000 and 1000 ppm respectively. These paints were then diluted with an antimicrobial free acrylic/silicone based paint and mixed to prepare targeted concentrations of antimicrobial compounds for the testing. The total biocides concentrations tested were 125, 250, 500, 1000, 2000 and 5000 ppm. After biocides addition or dilution, the paints were mixed 90 seconds with the horse power shaker (AXEL 75M3372/Agitateur SO-10MI) until uniformity was achieved. Paints containing different antimicrobial compounds at the same levels were mixed together in order to obtain the desired ratio of antimicrobial compounds. After one day, the paints were applied to Schleicher & Schuell filter paper at 280 μm wet film thickness and dried for 3 days at room temperature avoiding direct exposure to sunlight. Square discs (1.6 cm×1.6 cm) were cut out from each panel and were used as the substrate for algal efficacy tests. This sample size allowed for an agar border when the sample disc was placed into the well of the test plate.
(§2) Algal efficacy was tested according to modified ASTM 5589 which is a standard accelerated test method for determining resistance of various coatings (including paints) to algal defacement. To accommodate for high-throughput screening, this method was scaled down from petri dishes to 6-well plates. Bold Modified Basal Freshwater Nutrient Solution was used as growth medium. A single coated filter paper coupon was placed with a pair of sterile forceps at the center of the agar plug (on top) with the painted surface facing upwards. Algal inoculums were prepared by mixing equal concentrations (1×10^6 cfu/ml) and equal volumes of exponentially growing algae cultures.
(§3) Each well that contains a tested coupon was inoculated with 1750 μl of algal suspensions (1×10^6 cfu/ml) making sure that the whole surface (paint film as well as the agar surrounding it) was evenly covered. The plates were incubated at room temp (21° C.-25° C.) with cyclic exposure to light and dark phases, for a period of three weeks.
(§4) At the end of the three week incubation period, the samples were scored for percent inhibition regarding visible algal growth compared to the blank sample (0% inhibition).
(§5) The Synergy Index calculation was performed as follows.
(§6) The SI is calculated based on F. C. Kull et.
(§7) SI value of <1 in the formula indicates a synergism of the blended biocides exists.
(§8) The minimal targeted inhibition was set at 75%, meaning a coupon with at least 75% algal growth inhibition was considered as a pass.

[2] = system: Stichococcus bacillaris SAG 379-1a; assay: as above; type: cell-based; conditions: 3 weeks
Method: as §1, §2, §3, §4, §5, §6, §7, §8

SMILES	inhibition at 2000 ppm ([1]; total conc 2000 ppm, 3 weeks, vs blank sample)	Total conc (minimum inhibitory concentration chosen for SI; pass level ≧75% inhibition) ([1]; total active in liquid paint, dry film, 3 weeks)	inhibition at 1000 ppm ([2]; Stichococcus bacillaris, 504 h, total conc 1000 ppm, vs blank sample, read-out: % inhibition of visible algal growth)	Total conc (minimum inhibitory concentration chosen for SI; pass level ≧75% inhibition) ([2]; total active in liquid paint, dry film)	inhibition at 2000 ppm [1]	inhibition at 2000 ppm ([2]; Stichococcus bacillaris, 504 h, total conc 2000 ppm, vs blank sample, read-out: % inhibition of visible algal growth)
CCCCNC(=O)OCC#CI [IPBC, 3-Iodoprop-2-yn-1-yl butylcarbamate]	100%	2000 ppm	100%	1000 ppm		
O=c1[nH]c2c(c(=O)n1C1CCCCC1)CCC2 [Lenacil, 3-cyclohexyl-1,5,6,7-tetrahydrocyclopentapyrimidine-2,4(3H)-dione]					65%	80%
